pIC50: −log10 of the molar value. Bridge positions count the residues as written; N and C are the ends. Square brackets hold non-standard residues; d marks the D form. Peptide text beside a SMILES is read from it. * marks the point of attachment. Bip = N[C@@H](Cc1ccc(-c2ccccc2)cc1)C(=O)O; Phe(3-Me) = Cc1cccc(C[C@H](N)C(=O)O)c1; 3Pal = N[C@@H](Cc1cccnc1)C(=O)O; 4Pal = N[C@@H](Cc1ccncc1)C(=O)O; Cha = N[C@@H](CC1CCCCC1)C(=O)O; Carboxymethyl = O=C(O)C*; Orn = NCCC[C@H](N)C(=O)O; Aun = NCCCCCCCCCCC(=O)O; Dab = NCC[C@H](N)C(=O)O; Dap = NC[C@H](N)C(=O)O
Target: T1, PD-1/PD-L1 interaction (PE-labeled human PD-L1-Ig binding to Jurkat cell line over-expressing human PD-1) (Homo sapiens, UniProt Q15116)
T1 construct: expressed in transfected cells; host or cells: Jurkat
Experiment: Jurkat-PD-1 Cell Binding High-Content Screening Assay (CBA)
Type: cell-based
Conditions: Jurkat cell line over-expressing human PD-1; PE-labeled PD-L1-Ig 20 nM final; read-out: Jurkat hPD1-PDL1 IC50
Outline: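 Binding of fluorescent PD-L1-Ig (20 nM final) to Jurkat-PD-1 cells was measured by automated imaging after 1 h, following a 2 h compound pre-treatment at 37° C.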

T1 sequence (Q15116 25-288): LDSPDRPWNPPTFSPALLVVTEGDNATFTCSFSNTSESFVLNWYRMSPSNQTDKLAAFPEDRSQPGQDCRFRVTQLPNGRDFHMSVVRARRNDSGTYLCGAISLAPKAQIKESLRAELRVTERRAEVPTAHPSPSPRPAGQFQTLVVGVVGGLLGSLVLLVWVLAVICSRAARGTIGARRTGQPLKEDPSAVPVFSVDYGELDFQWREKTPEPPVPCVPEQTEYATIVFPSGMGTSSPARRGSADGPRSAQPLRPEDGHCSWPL

Row | Compound | pIC50
1 | Cc1cccc(C[C@@H]2NC(=O)[C@H](CC(=O)O)NC(=O)[C@H](Cc3ccc(OCC(=O)O)cc3)NC(=O)[C@H](CN)NC(=O)CSC[C@@H](C(=O)N[C@@H](CCN)C(=O)NCCCCCCCCCCC(=O)O)NC(=O)[C@H]([C@@H](C)O)NC(=O)[C@H](C(C)C)NC(=O)[C@H](CC3CCCCC3)NC(=O)[C@H](CCN)NC(=O)[C@@H](CC(C)C)NC(=O)[C@H](CCCN)NC(=O)[C@H](Cc3ccc(OCC(=O)O)cc3)NC(=O)[C@H](Cc3ccc(-c4ccccc4)cc3)NC(=O)[C@H](C(C)C)NC2=O)c1 [Compound 2731] ({CH2CO}-[Dap]Y(Carboxymethyl)D[Phe(3-Me)]V[Bip]Y(Carboxymethyl)[Orn][dL][Dab][Cha]VTC[Dab][Aun]-OH; thioether N-14) | 7.73
2 | Cc1cccc(C[C@@H]2NC(=O)[C@H](CC(=O)O)NC(=O)[C@H](Cc3ccc(OCC(=O)O)cc3)NC(=O)[C@H](CN)NC(=O)CSC[C@@H](C(=O)N[C@@H](CCN)C(=O)NCCCCCCCCCCC(=O)O)NC(=O)[C@H]([C@@H](C)O)NC(=O)[C@H](C(C)C)NC(=O)[C@H](CC3CCCCC3)NC(=O)[C@H](CCN)NC(=O)[C@@H](CC(C)C)NC(=O)[C@H](CCCN)NC(=O)[C@H](Cc3ccc(OCC(=O)O)cc3)NC(=O)[C@H](Cc3ccc(-c4ccccc4)cc3)NC(=O)[C@H](Cc3ccc(OCC(=O)O)cc3)NC2=O)c1 [Compound 2732] ({CH2CO}-[Dap]Y(Carboxymethyl)D[Phe(3-Me)]Y(Carboxymethyl)[Bip]Y(Carboxymethyl)[Orn][dL][Dab][Cha]VTC[Dab][Aun]-OH; thioether N-14) | 7.67
3 | Cc1cccc(C[C@@H]2NC(=O)[C@H](CC(=O)O)NC(=O)[C@H](Cc3ccncc3)NC(=O)[C@H](Cc3ccc(OCC(=O)O)cc3)NC(=O)CSC[C@@H](C(=O)N[C@@H](CCN)C(=O)NCCCCCCCCCCC(=O)O)NC(=O)[C@H]([C@@H](C)O)NC(=O)[C@H](C(C)C)NC(=O)[C@H](CC3CCCCC3)NC(=O)[C@H](CCN)NC(=O)[C@@H](CC(C)C)NC(=O)[C@H](CCCN)NC(=O)[C@H](Cc3ccc(O)cc3)NC(=O)[C@H](Cc3ccc(-c4ccccc4)cc3)NC(=O)[C@H](C(C)C)NC2=O)c1 [Compound 2733] ({CH2CO}-Y(Carboxymethyl)[4Pal]D[Phe(3-Me)]V[Bip]Y[Orn][dL][Dab][Cha]VTC[Dab][Aun]-OH; thioether N-14) | 7.37
4 | Cc1cccc(C[C@@H]2NC(=O)[C@H](CC(=O)O)NC(=O)[C@H](Cc3ccncc3)NC(=O)[C@H](Cc3ccc(OCC(=O)O)cc3)NC(=O)CSC[C@@H](C(=O)N[C@@H](CCN)C(=O)NCCCCCCCCCCC(=O)O)NC(=O)[C@H]([C@@H](C)O)NC(=O)[C@H](C(C)C)NC(=O)[C@H](CC3CCCCC3)NC(=O)[C@H](CCN)NC(=O)[C@@H](CC(C)C)NC(=O)[C@H](CCCN)NC(=O)[C@H](Cc3ccc(O)cc3)NC(=O)[C@H](Cc3ccc(-c4ccccc4)cc3)NC(=O)[C@H](Cc3ccc(O)cc3)NC2=O)c1 [Compound 2734] ({CH2CO}-Y(Carboxymethyl)[4Pal]D[Phe(3-Me)]Y[Bip]Y[Orn][dL][Dab][Cha]VTC[Dab][Aun]-OH; thioether N-14) | 7.57
5 | Cc1cccc(C[C@@H]2NC(=O)[C@H](CC(=O)O)NC(=O)[C@H](Cc3ccc(OCC(=O)O)cc3)NC(=O)[C@H](CN)NC(=O)CSC[C@@H](C(=O)N[C@H](CC(=O)NCCCCCCCCCCC(=O)O)C(N)=O)NC(=O)[C@H]([C@@H](C)O)NC(=O)[C@H](C(C)C)NC(=O)[C@H](CC3CCCCC3)NC(=O)[C@H](CCN)NC(=O)[C@@H](CC(C)C)NC(=O)[C@H](CCCN)NC(=O)[C@H](Cc3ccc(O)cc3)NC(=O)[C@H](Cc3ccc(-c4ccccc4)cc3)NC(=O)[C@H](C(C)C)NC2=O)c1 [Compound 2735] ({CH2CO}-[Dap]Y(Carboxymethyl)D[Phe(3-Me)]V[Bip]Y[Orn][dL][Dab][Cha]VTC[dD](Aun)-NH2; thioether N-14) | 7.14
6 | Cc1cccc(C[C@@H]2NC(=O)[C@H](CC(=O)O)NC(=O)[C@H](Cc3ccc(OCC(=O)O)cc3)NC(=O)[C@H](CN)NC(=O)CSC[C@@H](C(=O)N[C@H](CC(=O)NCCCCCCCCCCC(=O)O)C(N)=O)NC(=O)[C@H]([C@@H](C)O)NC(=O)[C@H](C(C)C)NC(=O)[C@H](CC3CCCCC3)NC(=O)[C@H](CCN)NC(=O)[C@@H](CC(C)C)NC(=O)[C@H](CCCN)NC(=O)[C@H](Cc3ccc(O)cc3)NC(=O)[C@H](Cc3ccc(-c4ccccc4)cc3)NC(=O)[C@H](Cc3ccc(O)cc3)NC2=O)c1 [Compound 2736] ({CH2CO}-[Dap]Y(Carboxymethyl)D[Phe(3-Me)]Y[Bip]Y[Orn][dL][Dab][Cha]VTC[dD](Aun)-NH2; thioether N-14) | 6.94
7 | Cc1cccc(C[C@@H]2NC(=O)[C@H](CC(=O)O)NC(=O)[C@H](Cc3ccc(OCC(=O)O)cc3)NC(=O)[C@H](CN)NC(=O)CSC[C@@H](C(=O)N[C@@H](CCN)C(=O)NCCCCCCCCCCC(=O)O)NC(=O)[C@H]([C@@H](C)O)NC(=O)[C@H](C(C)C)NC(=O)[C@H](CC3CCCCC3)NC(=O)[C@H](CCN)NC(=O)[C@@H](CC(C)C)NC(=O)[C@H](CCCN)NC(=O)[C@H](Cc3ccc(O)cc3)NC(=O)[C@H](Cc3ccc(-c4ccccc4)cc3)NC(=O)[C@H](CC(C)C)NC2=O)c1 [Compound 2737] ({CH2CO}-[Dap]Y(Carboxymethyl)D[Phe(3-Me)]L[Bip]Y[Orn][dL][Dab][Cha]VTC[Dab][Aun]-OH; thioether N-14) | 7.54
8 | Cc1cccc(C[C@@H]2NC(=O)[C@H](CC(=O)O)NC(=O)[C@H](Cc3ccc(O)cc3)NC(=O)[C@H](CC(N)=O)NC(=O)CSC[C@@H](C(=O)N[C@@H](CCN)C(=O)NCCCCCCCCCCC(=O)O)NC(=O)[C@H]([C@@H](C)O)NC(=O)[C@H](C(C)C)NC(=O)[C@H](CC3CCCCC3)NC(=O)[C@H](CCN)NC(=O)[C@@H](CC(C)C)NC(=O)[C@H](CCCN)NC(=O)[C@H](Cc3ccc(O)cc3)NC(=O)[C@H](Cc3ccc(-c4ccccc4)cc3)NC(=O)[C@H](C(C)C)NC2=O)c1 [Compound 2738] ({CH2CO}-NYD[Phe(3-Me)]V[Bip]Y[Orn][dL][Dab][Cha]VTC[Dab][Aun]-OH; thioether N-14) | 7.20
9 | Cc1cccc(C[C@@H]2NC(=O)[C@H](CC(=O)O)NC(=O)[C@H](Cc3ccc(OCC(=O)O)cc3)NC(=O)[C@H](CC(N)=O)NC(=O)CSC[C@@H](C(=O)N[C@@H](CCN)C(=O)NCCCCCCCCCCC(=O)O)NC(=O)[C@H]([C@@H](C)O)NC(=O)[C@H](C(C)C)NC(=O)[C@H](CC3CCCCC3)NC(=O)[C@H](CCN)NC(=O)[C@@H](CC(C)C)NC(=O)[C@H](CCCN)NC(=O)[C@H](Cc3ccc(O)cc3)NC(=O)[C@H](Cc3ccc(-c4ccccc4)cc3)NC(=O)[C@H](C(C)C)NC2=O)c1 [Compound 2739] ({CH2CO}-NY(Carboxymethyl)D[Phe(3-Me)]V[Bip]Y[Orn][dL][Dab][Cha]VTC[Dab][Aun]-OH; thioether N-14) | 7.72
10 | Cc1cccc(C[C@@H]2NC(=O)[C@H](CC(=O)O)NC(=O)[C@H](Cc3cccnc3)NC(=O)[C@H](CC(N)=O)NC(=O)CSC[C@@H](C(=O)N[C@@H](CCN)C(=O)NCCCCCCCCCCC(=O)O)NC(=O)[C@H]([C@@H](C)O)NC(=O)[C@H](C(C)C)NC(=O)[C@H](CC3CCCCC3)NC(=O)[C@H](CCN)NC(=O)[C@@H](CC(C)C)NC(=O)[C@H](CCCN)NC(=O)[C@H](Cc3ccc(O)cc3)NC(=O)[C@H](Cc3ccc(-c4ccccc4)cc3)NC(=O)[C@H](C(C)C)NC2=O)c1 [Compound 2740] ({CH2CO}-N[3Pal]D[Phe(3-Me)]V[Bip]Y[Orn][dL][Dab][Cha]VTC[Dab][Aun]-OH; thioether N-14) | 7.71
